Source: the NIST ThermoML archive (doi:10.1021/je200434a)

Conditions: 101.33 kPa, Liquid; for viscosity: Concentric cylinders viscometry; for mass density: Vibrating tube method

CCn1cc[n+](C)c1.O=S(=O)([O-])O [1-ethyl-3-methylimidazolium hydrogen sulfate]
Conditions	mass density [kg/m3]	viscosity [mPa·s]
283.15 K	–	5756.7
288.15 K	–	3635
293.15 K	1368.86	2389.9
294.15 K	1368.25	–
295.15 K	1367.63	–
296.15 K	1367	–
297.15 K	1366.38	–
298.15 K	1365.77	1628.4
299.15 K	1365.14	–
300.15 K	1364.53	–
301.15 K	1363.91	–
302.15 K	1363.29	–
303.15 K	1362.67	1144.8
304.15 K	1362.05	–
305.15 K	1361.44	–
306.15 K	1360.82	–
307.15 K	1360.21	–
308.15 K	1359.59	827.1
309.15 K	1358.98	–
310.15 K	1358.76	–
311.15 K	1358.14	–
312.15 K	1357.52	–
313.15 K	1356.9	612.2
314.15 K	1356.28	–
315.15 K	1355.67	–
316.15 K	1355.05	–
317.15 K	1354.43	–
318.15 K	1353.81	463
319.15 K	1353.19	–
320.15 K	1352.57	–
321.15 K	1351.96	–
322.15 K	1351.34	–
323.15 K	1350.72	356.8
324.15 K	1350.11	–
325.15 K	1349.49	–
326.15 K	1348.88	–
327.15 K	1348.27	–
328.15 K	1347.65	279.7
329.15 K	1347.04	–
330.15 K	1346.43	–
331.15 K	1345.82	–
332.15 K	1345.2	–
333.15 K	1344.6	222.6
334.15 K	1343.99	–
335.15 K	1343.38	–
336.15 K	1342.77	–
337.15 K	1342.16	–
338.15 K	1341.56	179.6
339.15 K	1340.95	–
340.15 K	1340.35	–
341.15 K	1339.75	–
342.15 K	1339.14	–
343.15 K	1338.54	146.7
344.15 K	1337.94	–
345.15 K	1337.34	–
346.15 K	1336.74	–
347.15 K	1336.14	–
348.15 K	1335.54	121.2
349.15 K	1334.94	–
350.15 K	1334.35	–
351.15 K	1333.75	–
352.15 K	1333.16	–
353.15 K	1332.57	101.2
354.15 K	1331.97	–
355.15 K	1331.38	–
356.15 K	1330.79	–
357.15 K	1330.2	–
358.15 K	1329.61	85.2
359.15 K	1329.02	–
360.15 K	1328.44	–
361.15 K	1327.85	–
362.15 K	1327.26	–
363.15 K	1326.68	72.4
368.15 K	–	61.9
373.15 K	–	53.4
